Experimental data: PubChem BioAssay AID248 (DTP/NCI, 2004)
Several values for one entry are separate records, joined by “and”; a condition that tells them apart may be missing. Equal values may be shown once. Toxic doses and inconclusive results are not listed. No stated cut-off is given here; in the data, active means T/C of 150% or more; inactive means T/C below 125%.

Tested on: L1210 leukemia ip in BDF1 mice, survival T/C
Test: NCI In Vivo Anticancer Drug Screen. Data for tumor model L1210 Leukemia (intraperitoneal) in B6D2F1 (BDF1) mice
Conditions: endpoint: mean survival time, higher = longer survival
Summary of the method: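 Read-out is survival time, reported as the treated-group measurement over the vehicle-control measurement.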

[1] = dose: 100.0 mg/kg/injection, schedule: Q01DX009 (ip), vehicle: saline with Tween-80
[2] = dose: 200.0 mg/kg/injection, schedule: Q01DX009 (ip), vehicle: saline with Tween-80
[3] = dose: 400.0 mg/kg/injection, schedule: Q01DX009 (ip), vehicle: saline with Tween-80
[4] = dose: 100.0 mg/kg/injection, schedule: Q01DX001 (ip), vehicle: saline
[5] = dose: 200.0 mg/kg/injection, schedule: Q01DX001 (ip), vehicle: saline
[6] = dose: 400.0 mg/kg/injection, schedule: Q01DX001 (ip), vehicle: saline
[7] = dose: 100.0 mg/kg/injection, schedule: Q04DX003 (ip), vehicle: saline with Tween-80
[8] = dose: 200.0 mg/kg/injection, schedule: Q04DX003 (ip), vehicle: saline with Tween-80
[9] = dose: 400.0 mg/kg/injection, schedule: Q04DX003 (ip), vehicle: saline with Tween-80
[10] = dose: 100.0 mg/kg/injection, schedule: Q01DX009 (ip), vehicle: Klucel (hydroxypropylcellulose) (HPC)
[11] = dose: 200.0 mg/kg/injection, schedule: Q01DX009 (ip), vehicle: Klucel (hydroxypropylcellulose) (HPC)
[12] = dose: 400.0 mg/kg/injection, schedule: Q01DX009 (ip), vehicle: Klucel (hydroxypropylcellulose) (HPC)
[13] = dose: 100.0 mg/kg/injection, schedule: Q01DX001 (ip), vehicle: Klucel (hydroxypropylcellulose) (HPC)
[14] = dose: 200.0 mg/kg/injection, schedule: Q01DX001 (ip), vehicle: Klucel (hydroxypropylcellulose) (HPC)
[15] = dose: 400.0 mg/kg/injection, schedule: Q01DX001 (ip), vehicle: Klucel (hydroxypropylcellulose) (HPC)
[16] = dose: 100.0 mg/kg/injection, schedule: Q04DX003 (ip), vehicle: Klucel (hydroxypropylcellulose) (HPC)
[17] = dose: 200.0 mg/kg/injection, schedule: Q04DX003 (ip), vehicle: Klucel (hydroxypropylcellulose) (HPC)
[18] = dose: 400.0 mg/kg/injection, schedule: Q04DX003 (ip), vehicle: Klucel (hydroxypropylcellulose) (HPC)
[19] = dose: 12.5 mg/kg/injection, schedule: Q01DX009 (ip), vehicle: saline
[20] = dose: 12.5 mg/kg/injection, schedule: Q04DX003 (ip), vehicle: saline
[21] = dose: 25.0 mg/kg/injection, schedule: Q04DX003 (ip), vehicle: saline

Measured: T/C

c1cc[c]([Ge]([O][Ge]([c]2ccccc2)([c]2ccccc2)[c]2ccccc2)([c]2ccccc2)[c]2ccccc2)cc1
inactive: dose: 50.0 mg/kg/injection, schedule: Q01DX009 (ip), vehicle: saline with Tween-80 94 % of control | [1] 96 % of control | [2] 96 % of control

CCN(CC)CCN(C)c1ccc(CO)c2sc3cc(Cl)ccc3c(=O)c12
inactive: dose: 7.81 mg/kg/injection, schedule: Q01DX009 (ip), vehicle: saline 101 % of control | dose: 15.63 mg/kg/injection, schedule: Q01DX009 (ip), vehicle: saline 101 % of control | dose: 31.25 mg/kg/injection, schedule: Q01DX009 (ip), vehicle: saline 100 % of control | dose: 62.5 mg/kg/injection, schedule: Q01DX009 (ip), vehicle: saline 99 % of control

CCOC(=O)CCC(NC(=O)c1ccccc1NC)C(=O)OCC (stereo unspecified)
inactive: [1] 94 % of control | [2] 92 % of control | [3] 101 % of control

Cc1cc(Cl)ccc1OCCCC(=O)O
inactive: dose: 50.0 mg/kg/injection, schedule: Q01DX001 (ip), vehicle: saline 102 % of control | [4] 98 % of control | [5] 98 % of control | [6] 104 % of control

COC(=O)C1(C(=O)OC)C2C(=O)C3C(C21)C3(C(=O)OC(C)(C)C)C(=O)OC(C)(C)C (stereo unspecified)
inactive: [1] 95 % of control | [7] 101 % of control and 98 % of control | [2] 92 % of control | [8] 102 % of control and 88 % of control | [3] 92 % of control | [9] 91 % of control and 111 % of control

O=C(Nc1ccc(O)cc1)Sc1ccccc1
inactive: dose: 75.0 mg/kg/injection, schedule: Q01DX001 (ip), vehicle: gum acacia 107 % of control

CCC1(O)CC(OC2CC(N(C)C)C(OC3CC(O)C(OC4CC(O)C(O)C(C)O4)C(C)O3)C(C)O2)c2c(cc3c(c2O)C(=O)c2c(O)ccc(O)c2C3=O)C1C(=O)OC (stereo unspecified)
inactive: dose: 1.6 mg/kg/injection, schedule: Q01DX001 (ip), vehicle: saline 98 % of control | dose: 3.2 mg/kg/injection, schedule: Q01DX001 (ip), vehicle: saline 117 % of control | dose: 6.4 mg/kg/injection, schedule: Q01DX001 (ip), vehicle: saline 108 % of control | dose: 12.8 mg/kg/injection, schedule: Q01DX001 (ip), vehicle: saline 124 % of control

CC1(c2ccccc2)OC(=O)c2c1ccc1ccccc21 (stereo unspecified)
inactive: dose: 100.0 mg/kg/injection, schedule: Q01DX001 (ip), vehicle: saline with Tween-80 94 % of control | dose: 200.0 mg/kg/injection, schedule: Q01DX001 (ip), vehicle: saline with Tween-80 95 % of control | dose: 400.0 mg/kg/injection, schedule: Q01DX001 (ip), vehicle: saline with Tween-80 90 % of control

CC(C)C(COC(=O)c1ccc(N)cc1)NC1CCCCC1C (stereo unspecified)
inactive: dose: 75.0 mg/kg/injection, schedule: Q01DX001 (ip), vehicle: carboxymethylcellulose (CMC) 97 % of control | dose: 150.0 mg/kg/injection, schedule: Q01DX001 (ip), vehicle: carboxymethylcellulose (CMC) 95 % of control | dose: 300.0 mg/kg/injection, schedule: Q01DX001 (ip), vehicle: carboxymethylcellulose (CMC) 89 % of control

COc1ccc(OC)c(NC(=O)Nc2cccc(C(C)=O)c2)c1
inactive: [10] 96 % of control | [11] 106 % of control | [12] 102 % of control

CC(CC(=O)NC(N)=O)(NC(N)=O)NC(N)=O
inactive: [13] 100 % of control | [14] 101 % of control | [15] 95 % of control

O=CNc1ccccc1Cc1ccccc1
inactive: [4] 101 % of control | [5] 107 % of control

Cc1ccc([N+](=O)[O-])cc1NC(=O)N(C)Cc1ccc(Cl)cc1
inactive: [13] 90 % of control | [10] 89 % of control and 90 % of control | [16] 102 % of control | [14] 98 % of control | [11] 94 % of control and 97 % of control | [17] 98 % of control | [15] 93 % of control | [12] 93 % of control and 90 % of control | [18] 100 % of control and 122 % of control

O=C(CCCOc1ccccc1)NCc1ccccc1[N+](=O)[O-]
inactive: [13] 92 % of control | [14] 96 % of control | [15] 102 % of control

O=C(N/N=C\c1ccc(Cl)cc1)c1ccccc1
inactive: [7] 99 % of control | [8] 100 % of control

O=C(Nc1ccccc1)c1ccc(N(CO)CO)cc1
inactive: [4] 98 % of control | dose: 100.0 mg/kg/injection, schedule: Q04DX003 (ip), vehicle: saline 94 % of control | [5] 101 % of control | dose: 200.0 mg/kg/injection, schedule: Q04DX003 (ip), vehicle: saline 120 % of control | [6] 93 % of control | dose: 400.0 mg/kg/injection, schedule: Q04DX003 (ip), vehicle: saline 96 % of control

COc1ccc(-c2sc(/N=C/c3cccs3)c(C#N)c2C)cc1OC
inactive: [10] 94 % of control | [11] 95 % of control | [12] 97 % of control

CC(C)(C)C1CC(C(F)(F)F)(C(F)(F)F)OS(=O)O1 (stereo unspecified)
inactive: [19] 96 % of control | [20] 102 % of control | dose: 25.0 mg/kg/injection, schedule: Q01DX009 (ip), vehicle: saline 94 % of control | [21] 91 % of control | dose: 50.0 mg/kg/injection, schedule: Q01DX009 (ip), vehicle: saline 100 % of control | dose: 50.0 mg/kg/injection, schedule: Q04DX003 (ip), vehicle: saline 94 % of control

O=C(CBr)Nc1nccs1
inactive: dose: 3.12 mg/kg/injection, schedule: Q01DX009 (ip), vehicle: saline 98 % of control | dose: 6.25 mg/kg/injection, schedule: Q01DX009 (ip), vehicle: saline 93 % of control | [19] 104 % of control | [20] 98 % of control | [21] 94 % of control

COc1ccc(C(C#N)N2CCCCC2)cc1 (stereo unspecified)
inactive: dose: 25.0 mg/kg/injection, schedule: Q01DX009 (ip), vehicle: Klucel (hydroxypropylcellulose) (HPC) 102 % of control | dose: 50.0 mg/kg/injection, schedule: Q01DX009 (ip), vehicle: Klucel (hydroxypropylcellulose) (HPC) 101 % of control | [16] 95 % of control | [17] 111 % of control | [18] 101 % of control

CC(=O)c1ccccc1NC(=O)c1ccccc1F
inactive: [10] 98 % of control | [11] 113 % of control | [12] 95 % of control

CC(C)(C#CC(C)(C)OC(=O)Nc1ccccc1)OC(=O)Nc1ccccc1
inactive: [4] 98 % of control | [5] 95 % of control | [6] 101 % of control

CNC(=O)NO
inactive: dose: 50.0 mg/kg/injection, schedule: Q01DX Z (ip), vehicle: water 112 % of control | dose: 200.0 mg/kg/injection, schedule: Q01DX Z (ip), vehicle: water 97 % of control | dose: 400.0 mg/kg/injection, schedule: Q01DX Z (ip), vehicle: water 115 % of control

O=S1(=O)CCNc2ccccc2O1
inactive: dose: 50.0 mg/kg/injection, schedule: Q01DX001 (ip), vehicle: Klucel (hydroxypropylcellulose) (HPC) 101 % of control | [13] 93 % of control | [14] 97 % of control | [15] 95 % of control

CS(=O)(=O)OCCNCCOS(C)(=O)=O
inactive: dose: 15.0 mg/kg/injection, schedule: Q01DX001 (ip), vehicle: saline 104 % of control | dose: 30.0 mg/kg/injection, schedule: Q01DX001 (ip), vehicle: saline 113 % of control | dose: 60.0 mg/kg/injection, schedule: Q01DX001 (ip), vehicle: saline 106 % of control | dose: 75.0 mg/kg/injection, schedule: Q01DX001 (ip), vehicle: saline 93 % of control

CCCCC[P+](c1ccccc1)(c1ccccc1)c1ccccc1
inactive: dose: 12.5 mg/kg/injection, schedule: Q04DX002 (ip), vehicle: Klucel (hydroxypropylcellulose) (HPC) 109 % of control | dose: 25.0 mg/kg/injection, schedule: Q04DX002 (ip), vehicle: Klucel (hydroxypropylcellulose) (HPC) 106 % of control | dose: 50.0 mg/kg/injection, schedule: Q04DX002 (ip), vehicle: Klucel (hydroxypropylcellulose) (HPC) 109 % of control

NC(=O)c1ccc[n+](CC(=O)Nc2ccc(Cl)cc2)c1
inactive: [7] 101 % of control | [8] 101 % of control | [9] 95 % of control
